# Reference: patent US20250367145A1, “COMPOUNDS FOR USE IN THE TREATMENT OF KIDNEY DISEASES” (Universitätsmedizin Greifswald, priority 2022, published 2025)
# Assays:
# [1] = tested on: Tg(nphs2:GAL4-VP16); Tg(UAS:Eco.nfsB-mCherry) zebrafish larvae; test: Edema progression in zebrafish larvae after MTZ podocyte injury (FSGS model), edema types 1-4; assay type: in vivo; conditions: for edema progression/formation at 10 μM: 10 μM compound in conjunction with MTZ, compared to MTZ group; for edema progression/formation at 10 μM / most effective concentration for prevention of proteinuric edema: until 8 dpf; for lethality at 100 μM: 100 μM compound in conjunction with MTZ (2 days); for effect in terms of proteinuric edema progression/formation: injury model, in conjunction with MTZ; for progression of podocyte injury induced in the disease model: zebrafish larvae model of FSGS, effects concentration-dependent; for most effective concentration for prevention of proteinuric edema: different concentrations in conjunction with MTZ
# Experimental: The results are depicted in FIG. 4. A treatment for 48 hours from 4 to 6 dpf with MTZ induces edema formation of four different severities in this strain, scaling from type 1=no edema to type 4=severe edema (FIG. 3). Edema severity of larvae treated with DMSO, MTZ and MTZ plus 1 μM, 10 μM or 100 μM belinostat was categorized at 6, 7 and 8 dpf (FIG. 4). […] Co-treatment with MTZ and 100 μM belinostat induced edema formation in 15% of larvae with 0% type 4 edema in contrast to 60% edema with 31% type 4 edema in the MTZ group. At 7 dpf, progression of edema formation was decelerated in all three groups for all three types of edema that received belinostat, again in a dose-dependent manner. MTZ caused type 4 edema in 56.4% of larvae at 7 dpf, contrary to 1.9% edema in the MTZ+100 μM belinostat group. […] 83.6% of larvae treated with MTZ developed edema with 58.2% showing type 4 edema. […] 10 μM belinostat+MTZ induced edema 80% of larvae with 34.5% type 4 edema. Co-treatment of MTZ with 100 μM belinostat caused edema formation in 64.2% of larvae with 28.3% type 4 edema (FIG. 4).
# FIG. 3 depicts the different degrees of podocyte injury progression: 1: no edema, 2: slight edema, 3: moderate edema, 4: severe edema. Black arrowheads show periocular and blank arrowheads depict abdominal edema. Scale bar: 500 μm.
# FIG. 4 depicts the results of Example 3, measuring the edema progression in larvae that were treated with different concentrations of belinostat in conjunction with MTZ. Edema progression was measured according to the categories of in larvae until 8 dpf following MTZ injury with various concentration of belinostat (DMSO n=52, MTZ n=55, MTZ+1 μM belinostat n=52, MTZ+10 μM belinostat n=55, MTZ+100 μM belinostat n=53).
# [2] = tested on: wildtype (AB/TU strain) zebrafish larvae; test: Toxicity of belinostat treatment on wildtype zebrafish larvae; assay type: in vivo; conditions: 250 μM belinostat, treated for 48 hours, at day 8
# Experimental: Larvae were treated for 48 hours and edema as well as malformations were assessed until 8 dpf.
# Mice (C57BL/6) = test: NTS (nephrotoxic serum) induced glomerular injury in mice, plasma creatinine; assay type: in vivo, mouse; conditions: NTS with low dose belinostat (25 mg/kg) compared to NTS injury group
# Experimental: Mice (C57BL/6) were treated with PBS (healthy control), NTS (nephrotoxic serum, injury control), NTS with low dose belinostat (25 mg/kg) and NTS with high dose belinostat (50 mg/kg).
# [3] = tested on: podocytes / glomerular filtration barrier of MTZ-injured zebrafish larvae; test: Zebrafish larvae podocyte injury screening: vascular eGFP (proteinuria) and glomerular mCherry (podocyte depletion) fluorescence ratios; conditions: for podocyte protection in drug library screen: co-treatment 80 μM MTZ + 100 μM compound, 24 h from 4 to 5 dpf, 12 larvae per compound
# Experimental: Groups of 12 larvae from one clutch were distributed into a 24-well plate (#662160 Greiner, Frickenhausen, Germany). For each clutch, 12 larvae were treated with 0.2% DMSO in E3 as negative control and 12 larvae were treated with 80 μM Metronidazole (MTZ) in DMSO in E3 as injury control and comparison group. The Fraunhofer ScreeningPort IME provided an epigenetic drug library which was used for this screening (Table 1). […] The treatment volume was 400 μl for each well with 12 larvae, the wells were sealed with Adhesive Clear PCR Seal (#600208, Biozym Scientific GMBH, Hessisch-Oldendorf) in order to prevent evaporation and plates were incubated at 28.5° C., wrapped in aluminum foil to prevent effects of light. After 24 hours, compounds were washed out in three changes of 0.5×E3.
# After washout at 5 dpf, E3 in the 12-well plate was replaced with E3 containing 0.4 mg/ml tricaine. Larvae were then individually transferred into wells of a 96-well plate (#644101, Greiner) which was prepared with custom agarose molds. For the molds, 45 μl of 0.7% boiling hot agarose (Biozym LE agarose) were transferred with a multichannel pipette into each well. After 3 min cooldown, a custom 3D printed orientation tool (Wittbrodt, Jonas N., Urban Liebel, and Jochen Gehrig. “Generation of orientation tools for automated zebrafish screening assays using desktop 3D printing.” BMC biotechnology 14.1 (2014): 1-6) was inserted into the agarose which produced cavities for orientation. Each larva was transferred with 100 μl tricaine containing E3 into the single wells of the 96-well plate (Row A was always 12×DMSO, Row B was always 12×MTZ, Row C-H were compounds+MTZ) and was then oriented laterally in the molds with a short piece of fishing line glued to a bend injection needle under the stereomicroscope manually with special attention to a flat caudal region.
# Image acquisition for the screening was performed with an Imaging Machine ([…] Imaging GmbH, Heidelberg, Germany). […] Overview images of each laterally oriented larva were obtained with a 2× objective (40% LED intensity, 30 ms integration). For each larva, a region of interest (ROI) at the tail region caudal of the cloaca was selected with the Acquifer PlateViewer (V1.7.1, […]) for the 10× objective in order to image the blood flow and vasculature. After creating custom modificated imaging scripts via FIJI (Schindelin, Johannes, et al. “Fiji: an open-source platform for biological-image analysis.” Nature methods 9.7 (2012): 676-682), 10 consecutive brightfield frames at a framerate of 33 Hz were acquired (10× objective, 100% LED intensity, 30 ms integration) followed by one frame at 470 nm (10× objective, 50% LED intensity, 50 ms integration). […] The focal plane for both acquisitions was detected with a built-in two-step software autofocus (10× objective, 2×2 binning, 10% LED intensity, 10 ms integration, first step: 31 slices with 50 μm distance, second step: 10 slices with 10 μm slice distance, brightfield for the caudal vasculature, 555 nm for glomerular mCherry).
# Following image acquisition, tricaine-containing E3 was washed out two times of each well and replaced by 150 μl E3. […] In this way, two values for the vascular eGFP fluorescence and two values for the glomerular mCherry fluorescence were obtained for each individual larva.
# [4] = 10 μM compound + 80 μM MTZ vs MTZ alone
smiles,measurement,setting,value
"CC(C)[C@H](C(=O)Nc1ccc(C(=O)NO)cc1)c1ccccc1 [AR-42, N-hydroxy-4-[[(2S)-3-methyl-2-phenylbutanoyl]amino]benzamide]",edema progression/formation at 10 μM,[1],able to prevent proteinuric edema
same,lethality at 100 μM,[1],lethal
same,effect in terms of proteinuric edema progression/formation,[1],protective effect
same,progression of podocyte injury induced in the disease model,[1],significantly slowed the progression of podocyte injury
"C#Cc1cccc(Nc2ncnc3cc(OC)c(OCCCCCCC(=O)NO)cc23)c1 [CUDC-101, 7-[4-(3-ethynylanilino)-7-methoxyquinazolin-6-yl]oxy-N-hydroxyheptanamide]",most effective concentration for prevention of proteinuric edema,[1],10 µM
same,effect in terms of proteinuric edema progression/formation,[1],protective effect
same,progression of podocyte injury induced in the disease model,[1],significantly slowed the progression of podocyte injury
"O=C(/C=C/c1ccc(CN(CCO)CCc2c[nH]c3ccccc23)cc1)NO [Dacinostat, (E)-N-hydroxy-3-[4-[[2-hydroxyethyl-[2-(1H-indol-3-yl)ethyl]amino]methyl]phenyl]prop-2-enamide]",edema progression/formation at 10 μM,[1],successfully prevented edema formation
same,lethality at 100 μM,[1],lethal
same,effect in terms of proteinuric edema progression/formation,[1],protective effect
same,progression of podocyte injury induced in the disease model,[1],significantly slowed the progression of podocyte injury
"O=C(CCCCCN1C(=O)c2cccc3cccc(c23)C1=O)NO [Scriptaid, 6-(1,3-Dioxo-1H,3H-benzo[de]isoquinolin-2-yl)-N-hydroxyhexanamide]",edema progression/formation at 10 μM,[1],successfully prevented edema progression
same,lethality at 100 μM,[1],in the lethal range
same,effect in terms of proteinuric edema progression/formation,[1],protective effect
same,progression of podocyte injury induced in the disease model,[1],significantly slowed the progression of podocyte injury
"O=C(CCCCCCC(=O)Nc1ccccc1)NO [Vorinostat, N′-hydroxy-N-phenyloctanediamide]",formation of moderate (type 3) edema,"[1]; 100 μM compound in conjunction with MTZ, 6 dpf",able to prevent formation of moderate edema
same,effect in terms of proteinuric edema progression/formation,[1],protective effect
same,progression of podocyte injury induced in the disease model,[1],significantly slowed the progression of podocyte injury
"O=C(/C=C/c1cccc(S(=O)(=O)Nc2ccccc2)c1)NO [belinostat, (2E)-N-hydroxy-3-[3-(phenylsulfamoyl)phenyl]prop-2-enamide]",larvae for which treatment is lethal,[2],35%
same,larvae with type 4 edema,"[1]; MTZ + 1 μM belinostat, 8 dpf (MTZ group 58.2%)",44.2%
same,larvae with edema formation,"[1]; MTZ + 1 μM belinostat, 8 dpf (MTZ group 83.6%)",80.8%
same,larvae with type 4 edema,"[1]; MTZ + 10 μM belinostat, 8 dpf (MTZ group 58.2%)",34.5%
same,larvae with edema formation,"[1]; MTZ + 10 μM belinostat, 8 dpf (MTZ group 83.6%)",80%
same,larvae with type 4 edema,"[1]; MTZ + 100 μM belinostat, 6 dpf (MTZ group 31%)",0%
same,larvae with edema formation,"[1]; MTZ + 100 μM belinostat, 6 dpf (MTZ group 60%)",15%
same,larvae with edema (contrasted with type 4 edema of MTZ group),"[1]; MTZ + 100 μM belinostat, 7 dpf (MTZ group type 4 edema 56.4%)",1.9%
same,larvae with type 4 edema,"[1]; MTZ + 100 μM belinostat, 8 dpf (MTZ group 58.2%)",28.3%
same,larvae with edema formation,"[1]; MTZ + 100 μM belinostat, 8 dpf (MTZ group 83.6%)",64.2%
same,progression of edema formation,"[1]; MTZ + 1, 10 or 100 μM belinostat, 7 dpf, dose-dependent",decelerated
same,number of larvae with type 3 and 4 edema,"[1]; MTZ + 1, 10 or 100 μM belinostat, after washout at 6 dpf, dose-dependent",reduced number of larvae with type 3 and 4 edema
same,edema progression with continuous treatment,"[1]; MTZ from 4-6 dpf and continuously belinostat until 8 dpf, vs belinostat until day 6",ameliorated most
same,delay in edema formation,"[1]; belinostat treatment groups, 8 dpf",stayed consistent
same,progression of podocyte injury induced in the disease model,[1],significantly slowed the progression of podocyte injury
same,plasma creatinine concentration,Mice (C57BL/6),reduce plasma creatine concentrations significantly
same,loss of podocyte mCherry fluorescence (glomerular fluorescence ratio 6 dpf/5 dpf),[3]; [4],significantly reduced loss of podocyte mCherry fluorescence
same,renal leakage of 78 kDa VDP-eGFP through the glomerular filtration barrier (vascular eGFP fluorescence ratio 6 dpf/5 dpf),[3]; [4],could prevent the renal leakage
same,harmful effect on the glomerular filtration barrier or podocyte vitality,"[3]; 10 μM compound alone, without MTZ injury",no harmful effect
same,podocyte protection in drug library screen,[3],podocyte-protective
"O=C(/C=C/C#Cc1cccc(NS(=O)(=O)c2ccccc2)c1)NO [oxamflatin, 5-[3-(benzenesulfonamido)phenyl]-N-hydroxypent-2-en-4-ynamide]",most effective concentration for prevention of proteinuric edema,[1],100 µM
same,progression of podocyte injury induced in the disease model,[1],significantly slowed the progression of podocyte injury
same,podocyte protection in drug library screen,[3],podocyte-protective
